Source: PubChem BioAssay AID1963825 (Molecular Pharmacology Branch, DTP, NCI, 2024)

Experiment: Anticancer human tumor 997537-175-T-J1-PDC patient-derived colon adenocarcinoma cell line growth inhibition [POLQ]
Conditions: 997537-175-T-J1-PDC complex spheroid viability, combination with POLQ inhibitors; for IC50: curve of first compound; for viability, T/C: stronger effect = lower value
Outline: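 Growth inhibition in 3D: complex spheroids (tumor PDC, HUVEC, MSC) treated with POLQ inhibitor combinations; where Cmax unknown, highest tested concentration 10 microM, except SN-38 at 1 microM.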

[1] = second compound 0.0316 µM, first compound 0.0316 µM
[2] = second compound 0.0316 µM, first compound 0.1 µM
[3] = second compound 0.0316 µM, first compound 0.316 µM
[4] = second compound 0.0316 µM, first compound 1 µM
[5] = second compound 0.0316 µM, first compound 3.16 µM
[6] = second compound 0.0316 µM, first compound 10 µM
[7] = second compound 0.1 µM, first compound 0.0316 µM
[8] = second compound 0.1 µM, first compound 0.1 µM
[9] = second compound 0.1 µM, first compound 0.316 µM
[10] = second compound 0.1 µM, first compound 1 µM
[11] = second compound 0.1 µM, first compound 3.16 µM
[12] = second compound 0.1 µM, first compound 10 µM
[13] = second compound 0.316 µM, first compound 0.0316 µM
[14] = second compound 0.316 µM, first compound 0.1 µM
[15] = second compound 0.316 µM, first compound 0.316 µM
[16] = second compound 0.316 µM, first compound 1 µM
[17] = second compound 0.316 µM, first compound 3.16 µM
[18] = second compound 0.316 µM, first compound 10 µM
[19] = second compound 1 µM, first compound 0.0316 µM
[20] = second compound 1 µM, first compound 0.1 µM
[21] = second compound 1 µM, first compound 0.316 µM
[22] = second compound 1 µM, first compound 1 µM
[23] = second compound 1 µM, first compound 3.16 µM
[24] = second compound 1 µM, first compound 10 µM
[25] = second compound 3.16 µM, first compound 0.0316 µM
[26] = second compound 3.16 µM, first compound 0.1 µM
[27] = second compound 3.16 µM, first compound 0.316 µM
[28] = second compound 3.16 µM, first compound 1 µM
[29] = second compound 3.16 µM, first compound 3.16 µM
[30] = second compound 3.16 µM, first compound 10 µM
[31] = second compound 10 µM, first compound 0.0316 µM
[32] = second compound 10 µM, first compound 0.1 µM
[33] = second compound 10 µM, first compound 0.316 µM
[34] = second compound 10 µM, first compound 1 µM
[35] = second compound 10 µM, first compound 3.16 µM
[36] = second compound 10 µM, first compound 10 µM
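Note: luminescence signal used as a surrogate for viable cells; spheroids exposed to drugs for seven days before readout.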

With COc1cc(C2c3cc4c(cc3C(OC3OC5COC(C)OC5C(O)C3O)C3COC(=O)C23)OCO4)cc(OC)c1O (centres undefined) + COC1C(OC(N)=O)C(O)C(Oc2ccc3c(O)c(NC(=O)c4ccc(O)c(CC=C(C)C)c4)c(=O)oc3c2C)OC1(C)C as the compound, how does the IC50 (second compound 0.0316 µM) read?
The IC50 was greater than 10 µM.

What about the IC50 (second compound 0.1 µM) of the same compound?
The IC50 was greater than 10 µM.

What about the IC50 (second compound 0.316 µM) of the same compound?
Its IC50 is greater than 10 µM.

And the IC50 (second compound 1 µM)?
The IC50 was greater than 10 µM.

What about the IC50 (second compound 3.16 µM) of the same compound?
The IC50 was greater than 10 µM.

What about the IC50 (second compound 10 µM) of the same compound?
The IC50 was greater than 10 µM.

What about the viability, T/C [1] of the same compound?
Its viability, T/C is 99.8%.

And the viability, T/C [2]?
The viability, T/C was 95%.

And the viability, T/C [3]?
Its viability, T/C is 93.1%.

What about the viability, T/C [4] of the same compound?
Its viability, T/C is 89.9%.

And the viability, T/C [5]?
The viability, T/C was 74.7%.

What about the viability, T/C [6] of the same compound?
Its viability, T/C is 67.3%.

And the viability, T/C [7]?
Its viability, T/C is 103%.

What about the viability, T/C [8] of the same compound?
The viability, T/C was 114%.

And the viability, T/C [9]?
The viability, T/C was 99.3%.

And the viability, T/C [10]?
The viability, T/C was 93.7%.

What about the viability, T/C [11] of the same compound?
The viability, T/C was 60.2%.

What about the viability, T/C [12] of the same compound?
The viability, T/C was 88.5%.

What about the viability, T/C [13] of the same compound?
The viability, T/C was 97.3%.

What about the viability, T/C [14] of the same compound?
Its viability, T/C is 107%.

And the viability, T/C [15]?
Its viability, T/C is 99.2%.

And the viability, T/C [16]?
Its viability, T/C is 108%.

And the viability, T/C [17]?
The viability, T/C was 92.3%.

What about the viability, T/C [18] of the same compound?
Its viability, T/C is 53.3%.

And the viability, T/C [19]?
Its viability, T/C is 93.5%.

What about the viability, T/C [20] of the same compound?
The viability, T/C was 105%.

And the viability, T/C [21]?
Its viability, T/C is 110%.

What about the viability, T/C [22] of the same compound?
Its viability, T/C is 83.9%.

And the viability, T/C [23]?
Its viability, T/C is 88.8%.

And the viability, T/C [24]?
Its viability, T/C is 55.5%.

And the viability, T/C [25]?
Its viability, T/C is 109%.

What about the viability, T/C [26] of the same compound?
Its viability, T/C is 107%.

And the viability, T/C [27]?
Its viability, T/C is 87.7%.

And the viability, T/C [28]?
The viability, T/C was 104%.

What about the viability, T/C [29] of the same compound?
Its viability, T/C is 63.5%.

What about the viability, T/C [30] of the same compound?
Its viability, T/C is 67.8%.

And the viability, T/C [31]?
Its viability, T/C is 106%.

And the viability, T/C [32]?
The viability, T/C was 107%.

What about the viability, T/C [33] of the same compound?
Its viability, T/C is 108%.

What about the viability, T/C [34] of the same compound?
Its viability, T/C is 100%.

What about the viability, T/C [35] of the same compound?
The viability, T/C was 84.9%.

What about the viability, T/C [36] of the same compound?
Its viability, T/C is 66.1%.

For O=c1[nH]cc(F)c(=O)[nH]1 + COC1C(OC(N)=O)C(O)C(Oc2ccc3c(O)c(NC(=O)c4ccc(O)c(CC=C(C)C)c4)c(=O)oc3c2C)OC1(C)C, which IC50 (second compound 0.0316 µM) is on record?
The IC50 was greater than 10 µM.

What about the IC50 (second compound 0.1 µM) of the same compound?
Its IC50 is greater than 10 µM.

And the IC50 (second compound 0.316 µM)?
The IC50 was greater than 10 µM.

And the IC50 (second compound 1 µM)?
The IC50 was greater than 10 µM.

And the IC50 (second compound 3.16 µM)?
The IC50 was greater than 10 µM.

What about the IC50 (second compound 10 µM) of the same compound?
Its IC50 is greater than 10 µM.

And the viability, T/C [1]?
Its viability, T/C is 102%.

And the viability, T/C [2]?
Its viability, T/C is 102%.

What about the viability, T/C [3] of the same compound?
Its viability, T/C is 112%.

And the viability, T/C [4]?
The viability, T/C was 87.8%.

What about the viability, T/C [5] of the same compound?
The viability, T/C was 78.7%.

And the viability, T/C [6]?
The viability, T/C was 76.2%.

And the viability, T/C [7]?
The viability, T/C was 86.3%.

And the viability, T/C [8]?
Its viability, T/C is 104%.

And the viability, T/C [9]?
The viability, T/C was 104%.

And the viability, T/C [10]?
Its viability, T/C is 114%.

And the viability, T/C [11]?
The viability, T/C was 102%.

What about the viability, T/C [12] of the same compound?
The viability, T/C was 90.3%.

What about the viability, T/C [13] of the same compound?
Its viability, T/C is 95.3%.

What about the viability, T/C [14] of the same compound?
Its viability, T/C is 103%.

What about the viability, T/C [15] of the same compound?
Its viability, T/C is 105%.

What about the viability, T/C [16] of the same compound?
Its viability, T/C is 87.7%.

And the viability, T/C [17]?
The viability, T/C was 85.2%.

And the viability, T/C [18]?
Its viability, T/C is 97.2%.

And the viability, T/C [19]?
The viability, T/C was 96.7%.

And the viability, T/C [20]?
The viability, T/C was 108%.

What about the viability, T/C [21] of the same compound?
Its viability, T/C is 110%.

And the viability, T/C [22]?
Its viability, T/C is 89.9%.

What about the viability, T/C [23] of the same compound?
The viability, T/C was 92.2%.

And the viability, T/C [24]?
Its viability, T/C is 87.5%.

What about the viability, T/C [25] of the same compound?
Its viability, T/C is 108%.

What about the viability, T/C [26] of the same compound?
The viability, T/C was 104%.

And the viability, T/C [27]?
The viability, T/C was 101%.

And the viability, T/C [28]?
The viability, T/C was 101%.

What about the viability, T/C [29] of the same compound?
Its viability, T/C is 103%.

What about the viability, T/C [30] of the same compound?
The viability, T/C was 92.6%.

And the viability, T/C [31]?
Its viability, T/C is 95.8%.

And the viability, T/C [32]?
The viability, T/C was 98.2%.

And the viability, T/C [33]?
The viability, T/C was 95.3%.

And the viability, T/C [34]?
The viability, T/C was 84.2%.

And the viability, T/C [35]?
Its viability, T/C is 96.9%.

And the viability, T/C [36]?
The viability, T/C was 85.3%.
